The numbers were not newly measured in patent US4925675A (hiMedics, Inc., priority 1988, dated 1990), which cites them from elsewhere.

For data set [1] the following is noted: in vivo.

Where two headings read alike, the source gives them in different places.

Regarding `CC[C@H]1OC(=O)[C@H](C)[C@@H](O[C@H]2C[C@@](C)(OC)[C@@H](O)[C@H](C)O2)[C@H](C)[C@@H](O[C@@H]2O[C@H](C)C[C@H](N(C)C)[C@H]2O)[C@](C)(O)C[C@@H](C)C(=O)[C@H](C)[C@@H](O)[C@]1(C)O` [Erythromycin], the pKa (usually the pH at which an ionisable group is half protonated) is reported as 8.7 and the solubility in water entry is given as “very slightly soluble”. The “solubility in simulated intestinal fluid” value (SIF) is recorded as “very soluble”. Besides, for the setting “alcohol, chloroform, ether and acetone”, the “solubility in alcohol, chloroform, ether and acetone” value is listed as “freely soluble”. For the same compound, the “solubility in amyl acetate and ethylene dichloride” value (amyl acetate and ethylene dichloride) is given as “moderately soluble”. Further, the solubility in water entry (listed as erythromycin) is on record as “not highly soluble”. Moreover, in data set [1], the “absorption in small intestine versus stomach” value is recorded as “better absorption characteristics in the small intestine than in the stomach”.
